From patent US6576634B1, “Pharmaceutical or dietetic preparation for improvement of fertility and sperm quality” (N.V. Nutricia, priority 2000, dated 2003)

Legend:
[1] = tested on: men suffering from round cell idiopathic syndrome; details: 15 mg per day during 3 months; men with round cell idiopathic syndrome; cited from earlier work
spermatozoa = details: 10 mg over 30 days; cited from earlier work
[2] = tested on: fertile men and subfertile men; assay: Spermcount after oral administration of folic acid, zinc or both, versus initial spermcount; format: in vivo; set-up: key to Percentage improvement of spermcount after administration of active agents, compared to initial spermcount: 0 means about neutral; The number of + signs indicates activity; ++: The number of + signs indicates activity; +++: The number of + signs indicates activity; +++(+): The number of + signs indicates activity; details: for Percentage improvement of spermcount after administration of active agents, compared to initial spermcount: daily administration during 5 months (table head; text says three months)
fowl seminal plasma = details: zinc concentration above 3 μg per ml storage medium; cited from earlier work
[3] = tested on: males that suffer from idopathic oligospermia; details: 220 mg zinc sulphate; idiopathic oligospermia; cited from earlier work

Compound | spermatozoa number and fertility [1] | sperm counts and motility and DNA content of spermatozoa (spermatozoa) | Percentage improvement of spermcount after administration of active agents, compared to initial spermcount ([2]; fertile men) | sperm count ([2]; folate alone, especially subfertile men) | Percentage improvement of spermcount after administration of active agents, compared to initial spermcount ([2]; subfertile men) | sperm counts ([2]; both groups, so also in fertile men) | fertility of fowl seminal plasma (fowl seminal plasma) | sperm and number of spermatozoa having normal morfology and motility [3]
Nc1nc(=O)c2c([nH]1)NCC(CNc1ccc(C(=O)N[C@@H](CCC(=O)O)C(=O)O)cc1)N2C=O (mixture of isomers) [folinic acid] | increases spermatozoa number and fertility | – | – | – | – | – | – | –
Nc1nc2ncc(CNc3ccc(C(=O)N[C@@H](CCC(=O)O)C(=O)O)cc3)nc2c(=O)[nH]1 [5 mg folate, folic acid] | – | did not result in an increase | 0 | increases sperm count | +++ | – | – | –
O=S(=O)([O-])[O-].[Zn+2] [15 mg zinc, zinc sulphate] | – | – | + | – | ++ | increases sperm counts in both groups | reduced the fertility | improved significantly
